Reference: US20250082630A1, “METHODS OF TREATING BRAIN TUMOURS AND NEUROBLASTOMAS” (AstraZeneca AB, priority 2021, published 2025)

Experiments:
[1] = system: MDR1 and BCRP; test: In vitro human transporter efflux (MDCK-MDR1-BCRP); details: human, pH 7.4
Procedure: MDCKII cells expressing MDR1 and BCRP were seeded onto polyethylene membranes in 96-well Transwell insert systems at a density to form a confluent cell monolayer. […] The final percent volume of the organic solvent was less than 1%. Permeation of the test compounds from A to B direction and from B to A direction was determined over a 90-min incubation at 37° C. and 5% CO2 with a relative humidity of 95%. At the end of the incubation, samples from the apical and basolateral side were taken and then precipitated with cold acetonitrile containing internal standard. After centrifugation at 4000 rpm, the supernatant was diluted with 0.1% formic acid aqueous solution and quantified by LC-MS/MS. The integrity of the cell monolayers was confirmed by using the marker Lucifer yellow.
The permeability coefficient (1×10-6 cm/s) was calculated using the following equation
(1) The Efflux Ratio was Calculated Using the Following Equation
Efflux ratio=Papp(B to A)/Papp(A to B)
(2) where dCr/dt is the cumulative concentration of the compound in the receiver chamber as a function of time (in μM/s); Vr is the solution volume in the receiver chamber (0.1 ml on the apical side and 0.3 ml on the basolateral side); A is the surface area for the transport, that is, 0.11 cm2 for the area of the monolayer; and C0 is the initial concentration in the donor chamber (in μM).

[2] = target: PARP6 (Homo sapiens (Human), UniProt Q2NL67); test: PARP fluorescence anisotropy binding assay, PARP6
Procedure: (§1) Recombinant full length GST tagged PARP6 protein was diluted to 160 nM with 50 mM Tris pH 8, 0.001% Triton X100, 10 mM MgCl2, 150 mM NaCl and incubated for four hours with an equivalent volume of 6 nM fluorescent probe diluted with 50 mM Tris pH 8, 0.001% Triton X100, 10 mM MgCI2, 150 mM NaCl. The final DMSO concentration of the probe was kept below 1% (v/v).
Fluorescence anisotropy of the probe when bound to the proteins was measured using a BMG Pherastar FSX® in the presence of test compounds or solvent control and the effect on anisotropy determined. % inhibition values for different test compound concentrations were calculated and fitted to a four parameter logistic plot in order to determine the IC50 value. Where necessary, the compound K, can be determined from the IC50 value using a Munson Rodbard equation defined in Anal Biochem. 1980 Sep. 1; 107(1):220-39 and is based on the known KD of the probe binding to the relevant PARP protein

[3] = target: PARP5a (Homo sapiens (Human), UniProt O95271); test: PARP fluorescence anisotropy binding assay, PARP5a
Procedure: Recombinant PARP5a binding domain was diluted to 160 nM with 50 mM Tris pH 8, 0.001% Triton X100, 10 mM MgCl2, 150 mM NaCl and incubated for four hours with an equivalent volume of 6 nM fluorescent probe diluted with 50 mM Tris pH 8, 0.001% Triton X100, 10 mM MgCl2, 150 mM NaCl. The final DMSO concentration of the probe was kept below 1% (v/v).

[4] = target: PARP3 (Homo sapiens (Human), UniProt Q9Y6F1); test: PARP fluorescence anisotropy binding assay, PARP3
Procedure: Recombinant full length PARP3 protein was diluted to 100 nM with 50 mM Tris pH 8, 0.001% Triton X100, 10 mM MgCl2, 150 mM NaCl and incubated for four hours with an equivalent volume of 6 nM fluorescent probe diluted with 50 mM Tris pH 8, 0.001% Triton X100, 10 mM MgCl2, 150 mM NaCl. The final DMSO concentration of the probe was kept below 1% (v/v).

[5] = target: PARP2 (Homo sapiens (Human), UniProt Q9UGN5); test: PARP fluorescence anisotropy binding assay, PARP2
Procedure: as §1, with “PARP2” for “GST tagged PARP6”, “6” for “160”, “2” for “6”, “MgCl2,” for “MgCI2,”
Fluorescence anisotropy of the probe when bound to the proteins was measured using a BMG Pherastar FSX® in the presence of test compounds or solvent control and the effect on anisotropy determined. % inhibition values for different test compound concentrations were calculated and fitted to a four parameter logistic plot in order to determine the IC50 value.

[6] = target: PARP1 (Homo sapiens (Human), UniProt P09874); test: PARP fluorescence anisotropy binding assay, PARP1
Sequence of PARP1 (P09874 whole entry): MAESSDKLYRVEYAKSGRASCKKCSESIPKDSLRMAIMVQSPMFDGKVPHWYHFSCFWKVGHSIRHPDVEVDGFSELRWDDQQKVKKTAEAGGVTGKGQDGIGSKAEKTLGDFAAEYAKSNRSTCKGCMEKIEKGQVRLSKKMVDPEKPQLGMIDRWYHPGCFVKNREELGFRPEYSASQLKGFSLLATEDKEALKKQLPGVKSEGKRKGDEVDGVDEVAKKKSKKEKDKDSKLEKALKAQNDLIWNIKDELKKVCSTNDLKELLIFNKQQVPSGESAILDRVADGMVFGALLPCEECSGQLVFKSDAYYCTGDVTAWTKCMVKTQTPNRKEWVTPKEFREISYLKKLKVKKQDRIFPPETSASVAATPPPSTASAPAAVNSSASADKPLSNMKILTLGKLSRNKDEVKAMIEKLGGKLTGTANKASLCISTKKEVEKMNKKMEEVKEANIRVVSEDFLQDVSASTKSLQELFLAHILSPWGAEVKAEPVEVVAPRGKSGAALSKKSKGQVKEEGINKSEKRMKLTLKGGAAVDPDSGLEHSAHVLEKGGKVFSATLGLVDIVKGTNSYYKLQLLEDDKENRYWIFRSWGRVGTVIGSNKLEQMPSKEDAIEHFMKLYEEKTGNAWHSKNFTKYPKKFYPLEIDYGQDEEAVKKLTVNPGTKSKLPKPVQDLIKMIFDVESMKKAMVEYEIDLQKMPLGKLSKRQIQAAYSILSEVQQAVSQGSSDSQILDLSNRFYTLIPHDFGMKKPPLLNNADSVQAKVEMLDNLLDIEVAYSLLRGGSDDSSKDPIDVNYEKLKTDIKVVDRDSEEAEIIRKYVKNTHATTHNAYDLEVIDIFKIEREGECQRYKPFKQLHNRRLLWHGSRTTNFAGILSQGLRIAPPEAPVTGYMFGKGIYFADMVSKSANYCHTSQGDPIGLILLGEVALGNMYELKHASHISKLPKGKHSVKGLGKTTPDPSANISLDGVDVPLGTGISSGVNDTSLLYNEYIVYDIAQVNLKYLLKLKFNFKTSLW

Sequence of PARP3 (Q9Y6F1 whole entry): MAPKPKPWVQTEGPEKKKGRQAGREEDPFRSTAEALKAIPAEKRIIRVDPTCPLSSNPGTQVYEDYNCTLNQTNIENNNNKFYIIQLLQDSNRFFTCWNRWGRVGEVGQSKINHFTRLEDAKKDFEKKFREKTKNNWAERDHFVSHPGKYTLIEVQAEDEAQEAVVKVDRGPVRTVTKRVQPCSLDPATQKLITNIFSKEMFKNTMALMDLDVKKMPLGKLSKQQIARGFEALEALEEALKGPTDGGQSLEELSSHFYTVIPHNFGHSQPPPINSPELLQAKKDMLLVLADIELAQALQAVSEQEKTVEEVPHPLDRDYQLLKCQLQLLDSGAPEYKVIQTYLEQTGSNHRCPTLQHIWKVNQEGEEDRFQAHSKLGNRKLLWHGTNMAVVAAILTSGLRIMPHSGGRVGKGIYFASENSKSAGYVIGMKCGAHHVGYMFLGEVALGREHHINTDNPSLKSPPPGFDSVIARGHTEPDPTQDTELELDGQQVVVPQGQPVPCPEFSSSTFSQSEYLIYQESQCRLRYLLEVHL
Sequence of PARP6 (Q2NL67 whole entry): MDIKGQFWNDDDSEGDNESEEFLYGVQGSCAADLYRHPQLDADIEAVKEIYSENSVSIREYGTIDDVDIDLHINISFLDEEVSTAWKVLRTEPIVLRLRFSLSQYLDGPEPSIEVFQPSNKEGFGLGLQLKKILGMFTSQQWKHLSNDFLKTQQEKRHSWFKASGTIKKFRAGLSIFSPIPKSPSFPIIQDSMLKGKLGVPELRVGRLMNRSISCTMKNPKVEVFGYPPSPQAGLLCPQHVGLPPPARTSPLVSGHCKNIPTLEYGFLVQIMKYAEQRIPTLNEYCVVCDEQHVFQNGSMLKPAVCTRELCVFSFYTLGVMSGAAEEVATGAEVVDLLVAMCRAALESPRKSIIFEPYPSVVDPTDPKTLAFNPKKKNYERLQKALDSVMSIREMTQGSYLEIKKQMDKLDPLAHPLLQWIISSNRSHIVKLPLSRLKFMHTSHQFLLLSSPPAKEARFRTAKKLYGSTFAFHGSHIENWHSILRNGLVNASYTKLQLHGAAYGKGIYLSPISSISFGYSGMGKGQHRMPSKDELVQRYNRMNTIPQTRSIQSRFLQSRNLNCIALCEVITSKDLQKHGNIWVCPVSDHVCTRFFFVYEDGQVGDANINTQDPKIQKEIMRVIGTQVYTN
Sequence of PARP5a (O95271 1112-1317): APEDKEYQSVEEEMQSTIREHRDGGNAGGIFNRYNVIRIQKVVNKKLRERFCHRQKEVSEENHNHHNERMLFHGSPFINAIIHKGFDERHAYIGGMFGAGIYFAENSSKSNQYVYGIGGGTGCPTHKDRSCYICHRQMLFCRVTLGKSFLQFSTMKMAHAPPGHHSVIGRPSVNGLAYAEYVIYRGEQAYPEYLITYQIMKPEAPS
Sequence of PARP2 (Q9UGN5 whole entry): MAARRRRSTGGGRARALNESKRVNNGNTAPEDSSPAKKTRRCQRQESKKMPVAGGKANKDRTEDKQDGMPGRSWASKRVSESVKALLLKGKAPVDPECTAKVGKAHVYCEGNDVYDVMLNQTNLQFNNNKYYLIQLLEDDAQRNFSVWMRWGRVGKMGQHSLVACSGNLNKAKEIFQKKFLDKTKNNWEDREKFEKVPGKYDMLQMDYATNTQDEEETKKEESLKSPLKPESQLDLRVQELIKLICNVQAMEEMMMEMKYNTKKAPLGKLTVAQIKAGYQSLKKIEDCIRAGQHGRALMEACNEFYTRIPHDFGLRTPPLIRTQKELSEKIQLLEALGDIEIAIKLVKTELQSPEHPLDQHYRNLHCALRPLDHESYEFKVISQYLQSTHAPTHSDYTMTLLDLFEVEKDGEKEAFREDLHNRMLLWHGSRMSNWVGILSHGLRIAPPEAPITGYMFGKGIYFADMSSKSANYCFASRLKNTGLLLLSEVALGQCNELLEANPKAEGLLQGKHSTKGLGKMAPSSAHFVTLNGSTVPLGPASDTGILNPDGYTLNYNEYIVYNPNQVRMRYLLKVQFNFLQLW

efflux ratio at 90 min [1]	IC50 [2]	IC50 [3]	IC50 [4]	IC50 [5]	IC50 [6]	SMILES
1.3	> 100 µM	> 100 µM	> 100 µM	> 100 µM	3 nM	CNC(=O)c1ccc(N2CCN(Cc3ccc4nc(C)c(=O)[nH]c4c3C)CC2)c(Cl)n1 [Example 3, 6-chloro-5-[4-[(2,5-dimethyl-3-oxo-4H-quinoxalin-6-yl)methyl]piperazin-1-yl]-N-methyl-pyridine-2-carboxamide]
0.4	–	–	–	–	4 nM	CCc1nc2ccc(CN3CCN(c4ccc(C(=O)NC)nc4F)CC3)c(Cl)c2[nH]c1=O [Example 9, 5-[4-[(5-chloro-2-ethyl-3-oxo-4H-quinoxalin-6-yl)methyl]piperazin-1-yl]-6-fluoro-N-methyl-pyridine-2-carboxamide]
2.4	–	–	–	40 µM	13 nM	CNC(=O)c1ccc(N2CCN(Cc3ccc4nc(C(C)(F)F)c(=O)[nH]c4c3F)CC2)c(C)n1 [Example 19, 5-[4-[[2-(1,1-difluoroethyl)-5-fluoro-3-oxo-4H-quinoxalin-6-yl]methyl]piperazin-1-yl]-N,6-dimethyl-pyridine-2-carboxamide]
1.6	> 100 µM	> 100 µM	5.8 µM	> 100 µM	7 nM	CNC(=O)c1ccc(N2CCN(Cc3ccc4nc(C)c(=O)[nH]c4c3F)CC2)c(C(F)F)n1 [Example 21, 6-(difluoromethyl)-5-[4-[(5-fluoro-2-methyl-3-oxo-4H-quinoxalin-6-yl)methyl]piperazin-1-yl]-N-methyl-pyridine-2-carboxamide]
1.1	> 100 µM	> 100 µM	> 100 µM	> 81 µM	6 nM	CCc1nc2ccc(CN3CCN(c4ccc(C(=O)NC)nc4C(F)F)CC3)c(F)c2[nH]c1=O [Example 24, 6-(difluoromethyl)-5-[4-[(2-ethyl-5-fluoro-3-oxo-4H-quinoxalin-6-yl)methyl]piperazin-1-yl]-N-methyl-pyridine-2-carboxamide]
0.8	> 100 µM	> 100 µM	> 100 µM	> 100 µM	5 nM	CCc1nc2ccc(CN3CCN(c4ccc(C(=O)NC)nc4Cl)CC3)c(F)c2[nH]c1=O [Example 28, 6-chloro-5-[4-[(2-ethyl-5-fluoro-3-oxo-4H-quinoxalin-6-yl)methyl]piperazin-1-yl]-N-methyl-pyridine-2-carboxamide]
1.8	> 100 µM	> 100 µM	> 100 µM	> 100 µM	6 nM	CNC(=O)c1ccc(N2CCN(Cc3ccc4nc(C)c(=O)[nH]c4c3F)CC2)c(Cl)n1 [Example 30, 6-chloro-5-[4-[(5-fluoro-2-methyl-3-oxo-4H-quinoxalin-6-yl)methyl]piperazin-1-yl]-N-methyl-pyridine-2-carboxamide]
–	> 100 µM	> 100 µM	> 100 µM	> 100 µM	7 nM	CNC(=O)c1ccc(N2CCN(Cc3ccc4nc(C)c(=O)[nH]c4c3F)CC2)cn1 [Example 32, 5-[4-[(5-fluoro-2-methyl-3-oxo-4H-quinoxalin-6-yl)methyl]piperazin-1-yl]-N-methyl-pyridine-2-carboxamide]
5	–	–	–	57 µM	26 nM	CNC(=O)c1ccc(N2CCN(Cc3ccc4nc(C(F)F)c(=O)[nH]c4c3F)CC2)c(C)n1 [Example 37, 5-[4-[[2-(difluoromethyl)-5-fluoro-3-oxo-4H-quinoxalin-6-yl]methyl]piperazin-1-yl]-N,6-dimethyl-pyridine-2-carboxamide]
–	> 100 µM	> 100 µM	> 100 µM	21 µM	12 nM	CNC(=O)c1ccc(N2CCN(Cc3ccc4nc(OC)c(=O)[nH]c4c3F)CC2)cn1 [Example 38, 5-[4-[(5-fluoro-2-methoxy-3-oxo-4H-quinoxalin-6-yl)methyl]piperazin-1-yl]-N-methyl-pyridine-2-carboxamide]
1.9	> 100 µM	> 100 µM	> 100 µM	> 100 µM	6 nM	CNC(=O)c1ccc(N2CCN(Cc3ccc4nc(OC)c(=O)[nH]c4c3F)CC2)c(F)n1 [Example 39, 6-fluoro-5-[4-[(5-fluoro-2-methoxy-3-oxo-4H-quinoxalin-6-yl)methyl]piperazin-1-yl]-N-methyl-pyridine-2-carboxamide]
2	> 100 µM	13 µM	> 100 µM	> 100 µM	11 nM	CNC(=O)c1ccc(N2CCN(Cc3ccc4nc(OC)c(=O)[nH]c4c3F)CC2)c(C)n1 [Example 40, 5-[4-[(5-fluoro-2-methoxy-3-oxo-4H-quinoxalin-6-yl)methyl]piperazin-1-yl]-N,6-dimethyl-pyridine-2-carboxamide]
2.4	> 100 µM	> 100 µM	> 100 µM	> 100 µM	5 nM	CNC(=O)c1ccc(N2CCN(Cc3ccc4nc(OC)c(=O)[nH]c4c3F)CC2)c(Cl)n1 [Example 41, 6-chloro-5-[4-[(5-fluoro-2-methoxy-3-oxo-4H-quinoxalin-6-yl)methyl]piperazin-1-yl]-N-methyl-pyridine-2-carboxamide]
1.5	–	–	–	> 100 µM	6 nM	CCNC(=O)c1ccc(N2CCN(Cc3ccc4nc(C)c(=O)[nH]c4c3F)CC2)c(F)n1 [Example 45, N-ethyl-6-fluoro-5-[4-[(5-fluoro-2-methyl-3-oxo-4H-quinoxalin-6-yl)methyl]piperazin-1-yl]pyridine-2-carboxamide]
–	> 100 µM	> 100 µM	> 100 µM	> 100 µM	76 nM	CNC(=O)c1ccc(N2CCN(Cc3ccc4nc(C(F)(F)F)c(=O)[nH]c4c3F)CC2)c(C)n1 [Example 47, 5-[4-[[5-fluoro-3-oxo-2-(trifluoromethyl)-4H-quinoxalin-6-yl]methyl]piperazin-1-yl]-N,6-dimethyl-pyridine-2-carboxamide]
–	> 100 µM	> 100 µM	> 29 µM	11 µM	43 nM	CNC(=O)c1ccc(N2CCN(Cc3ccc4nc(C(F)(F)F)c(=O)[nH]c4c3F)CC2)c(Cl)n1 [Example 49, 6-chloro-5-[4-[[5-fluoro-3-oxo-2-(trifluoromethyl)-4H-quinoxalin-6-yl]methyl]piperazin-1-yl]-N-methyl-pyridine-2-carboxamide]
–	–	–	–	> 100 µM	5 nM	CNC(=O)c1ccc(N2CCN(Cc3ccc4nc(C5CC5)c(=O)[nH]c4c3F)CC2)c(C)n1 [Example 55, 5-[4-[(2-cyclopropyl-5-fluoro-3-oxo-4H-quinoxalin-6-yl)methyl]piperazin-1-yl]-N,6-dimethyl-pyridine-2-carboxamide]
–	–	–	–	> 100 µM	8 nM	CNC(=O)c1ccc(N2CCN(Cc3ccc4nc(C5CC5)c(=O)[nH]c4c3F)CC2)cn1 [Example 56, 5-[4-[(2-cyclopropyl-5-fluoro-3-oxo-4H-quinoxalin-6-yl)methyl]piperazin-1-yl]-N-methyl-pyridine-2-carboxamide]
–	–	–	–	> 100 µM	11 nM	CNC(=O)c1ccc(N2CCN(Cc3ccc4nc(OC)c(=O)[nH]c4c3C)CC2)c(C)n1 [Example 57, 5-[4-[(2-methoxy-5-methyl-3-oxo-4H-quinoxalin-6-yl)methyl]piperazin-1-yl]-N,6-dimethyl-pyridine-2-carboxamide]
–	–	–	–	2.1 µM	6 nM	CNC(=O)c1ccc(N2CCN(Cc3ccc4nc(OC)c(=O)[nH]c4c3C)CC2)c(C(F)F)n1 [Example 59, 6-(difluoromethyl)-5-[4-[(2-methoxy-5-methyl-3-oxo-4H-quinoxalin-6-yl)methyl]piperazin-1-yl]-N-methyl-pyridine-2-carboxamide]
–	–	–	–	> 100 µM	23 nM	CNC(=O)c1ccc(N2CCN(Cc3ccc4nc(C)c(=O)[nH]c4c3C)CC2)c(C(F)F)n1 [Example 60, 6-(difluoromethyl)-5-[4-[(2,5-dimethyl-3-oxo-4H-quinoxalin-6-yl)methyl]piperazin-1-yl]-N-methyl-pyridine-2-carboxamide]
